In patent US11219213B2, “Fungicidal composition” (ADAMA HUIFENG (JIANGSU) LTD., priority 2016, dated 2022):
Like-named read-outs stand apart in the source and are kept apart here.

Test system: wheat leaf rust
Assay: Toxicity test of benzisothiazolinone combined with flutriafol (bioassay)
Assay type: in vivo
Details: for ATI (actual toxicity index): (EC50 of standard/EC50 of test agent)*100, flutriafol as standard; for EC50: median inhibition concentration from control effect, least square method

SMILES | ATI (actual toxicity index) | EC50 [µg/mL] | EC50 (Puccinia triticina, read-out: EC50) [µg/mL]
O=c1[nH]sc2ccccc12 [Benzisothiazolinone, benzisothiazolinone] | 167.39 | 40.23 | –
OC(Cn1cncn1)(c1ccc(F)cc1)c1ccccc1F (stereo not shown) [Flutriafol, flutriafol] | 100.00 | – | 67.3
